Settings: Liquid; for speed of sound: Linear variable-path acoustic interferometer; for mass density: Vibrating tube method

CCCC[n+]1ccn(C)c1.O=S(=O)([N-]S(=O)(=O)C(F)(F)F)C(F)(F)F
Settings	mass density [kg/m3]	speed of sound [m/s]
283.15 K, 100 kPa	–	1264.5
283.15 K, 5090 kPa	–	1280.8
283.15 K, 9980 kPa	–	1296.8
283.15 K, 20020 kPa	–	1327.9
283.15 K, 29950 kPa	–	1357.3
283.15 K, 44830 kPa	–	1398.7
283.15 K, 59710 kPa	–	1437.5
283.15 K, 79700 kPa	–	1486.8
283.15 K, 98920 kPa	–	1531.3
283.15 K, 124410 kPa	–	1586.6
283.15 K, 151000 kPa	–	1640.5
293.15 K, 100 kPa	–	1238.1
293.15 K, 5000 kPa	–	1254.6
293.15 K, 10020 kPa	–	1271.2
293.15 K, 20010 kPa	–	1302.5
293.15 K, 59650 kPa	–	1411.8
293.15 K, 99720 kPa	–	1505.9
293.15 K, 151200 kPa	–	1611.9
298.15 K, 100 kPa	1437.04	–
298.15 K, 5000 kPa	1440.78	–
298.15 K, 7460 kPa	1442.64	–
298.15 K, 9920 kPa	1444.45	–
298.15 K, 12380 kPa	1446.22	–
298.15 K, 14840 kPa	1447.99	–
298.15 K, 17300 kPa	1449.71	–
298.15 K, 19760 kPa	1451.41	–
298.15 K, 22210 kPa	1453.09	–
298.15 K, 24670 kPa	1454.75	–
298.15 K, 27130 kPa	1456.4	–
298.15 K, 29590 kPa	1458.04	–
298.15 K, 32050 kPa	1459.61	–
298.15 K, 34510 kPa	1461.19	–
298.15 K, 36970 kPa	1462.78	–
298.15 K, 39430 kPa	1464.31	–
298.15 K, 41880 kPa	1465.81	–
298.15 K, 44340 kPa	1467.33	–
298.15 K, 46800 kPa	1468.8	–
298.15 K, 49260 kPa	1470.28	–
298.15 K, 51720 kPa	1471.69	–
298.15 K, 54180 kPa	1473.13	–
298.15 K, 56640 kPa	1474.55	–
298.15 K, 59100 kPa	1475.94	–
303.14 K, 100 kPa	1432.49	–
303.14 K, 5000 kPa	1436.13	–
303.14 K, 7460 kPa	1437.93	–
303.14 K, 9920 kPa	1439.73	–
303.14 K, 12380 kPa	1441.51	–
303.14 K, 14840 kPa	1443.23	–
303.14 K, 17300 kPa	1444.96	–
303.14 K, 19760 kPa	1446.65	–
303.14 K, 22210 kPa	1448.37	–
303.14 K, 24670 kPa	1449.99	–
303.14 K, 27130 kPa	1451.64	–
303.14 K, 29590 kPa	1453.25	–
303.14 K, 32050 kPa	1454.87	–
303.14 K, 34510 kPa	1456.47	–
303.14 K, 36970 kPa	1458.05	–
303.14 K, 39430 kPa	1459.6	–
303.14 K, 41880 kPa	1461.17	–
303.14 K, 44340 kPa	1462.67	–
303.14 K, 46800 kPa	1464.2	–
303.14 K, 49260 kPa	1465.69	–
303.14 K, 51720 kPa	1467.16	–
303.14 K, 54180 kPa	1468.67	–
303.14 K, 56640 kPa	1470.14	–
303.14 K, 59100 kPa	1471.59	–
303.15 K, 100 kPa	–	1217.5
303.15 K, 5030 kPa	–	1234
303.15 K, 10000 kPa	–	1250.7
303.15 K, 20030 kPa	–	1282.8
303.15 K, 59720 kPa	–	1393.5
303.15 K, 98960 kPa	–	1485.9
303.15 K, 150840 kPa	–	1592.9
308.09 K, 100 kPa	1427.92	–
308.09 K, 5000 kPa	1431.5	–
308.09 K, 7460 kPa	1433.28	–
308.09 K, 9920 kPa	1435.07	–
308.09 K, 12380 kPa	1436.81	–
308.09 K, 14840 kPa	1438.55	–
308.09 K, 17300 kPa	1440.27	–
308.09 K, 19760 kPa	1441.96	–
308.09 K, 22210 kPa	1443.64	–
308.09 K, 24670 kPa	1445.32	–
308.09 K, 27130 kPa	1446.94	–
308.09 K, 29590 kPa	1448.61	–
308.09 K, 32050 kPa	1450.21	–
308.09 K, 34510 kPa	1451.8	–
308.09 K, 36970 kPa	1453.43	–
308.09 K, 39430 kPa	1454.99	–
308.09 K, 41880 kPa	1456.59	–
308.09 K, 44340 kPa	1458.14	–
308.09 K, 46800 kPa	1459.69	–
308.09 K, 49260 kPa	1461.21	–
308.09 K, 51720 kPa	1462.74	–
308.09 K, 54180 kPa	1464.26	–
308.09 K, 56640 kPa	1465.8	–
308.09 K, 59100 kPa	1467.28	–
313.15 K, 100 kPa	1422.99	1194.5
313.15 K, 5000 kPa	1426.56	–
313.15 K, 5010 kPa	–	1211.5
313.15 K, 7460 kPa	1428.4	–
313.15 K, 9920 kPa	1430.14	–

— the NIST ThermoML archive (doi:10.1016/j.jct.2005.04.018)
